Results as given in patent US20190367448A1, “TREATMENT OF SLEEP-WAKE DISORDERS” (SK Biopharmaceuticals Co., Ltd., priority 2005, published 2019).

How the values were obtained:
[1] = test system: male adult Sprague Dawley rats; assay: Sleep-wake organization in rats, polysomnographic recording (EEG, EOG, EMG, body movement) for 16 hours after acute i.p. administration; assay type: in vivo, rat; conditions: rats; for Duration (min) Active wake / Duration (min) Deep sleep / Duration (min) Light sleep / Duration (min) Passive wake / Duration (min) REM sleep / Duration (min) intermediate stage / ISWS/TST (%) / Latency (min) ISWS / Latency (min) REM sleep / Latency (min) dSWS / REMS/TST (%) / Shifts (number) Shift from ISWS to AW / Shifts (number) Shift from ISWS to PW / Shifts (number) Shift from REMS to AW / Shifts (number) Shift from REMS to PW / Shifts (number) Shift from dSWS to AW / Shifts (number) Shift from dSWS to PW / Total sleep time TST / dSWS/TST (%): 16 hours recording period
[2] = test system: Mice; assay: Spontaneous Locomotor Activity in Mice and Rats model (mice); assay type: in vivo, mouse
[3] = test system: Rats; assay: Spontaneous Locomotor Activity in Mice and Rats model (rats); assay type: in vivo, rat
[4] = 3 mg/kg i.p., 16 hours recording
[5] = 10 mg/kg i.p., first 90 minutes of the recording period
[6] = 30 mg/kg i.p., 16 hours recording
[7] = 30 mg/kg i.p., vs vehicle, 16-h post-injection period

NC(=O)OCC(N)Cc1ccccc1 [R228060, (R)-(beta-amino-benzenepropyl) carbamate]
increased drive to wakefulness from deep sleep [1, 4]: +15%
increased drive to wakefulness from light sleep [1, 4]: +46%
Duration (min) Active wake ([1]; 3 mg/kg i.p.): 290.0 min
Duration (min) Deep sleep ([1]; 3 mg/kg i.p.): 125.0 min
Duration (min) Light sleep ([1]; 3 mg/kg i.p.): 374.7 min
Duration (min) Passive wake ([1]; 3 mg/kg i.p.): 79.5 min
Duration (min) REM sleep ([1]; 3 mg/kg i.p.): 84.0 min
Duration (min) intermediate stage ([1]; 3 mg/kg i.p.): 2.9 min
ISWS/TST (%) ([1]; 3 mg/kg i.p.): 64.3 ± 3.3%
Latency (min) ISWS ([1]; 3 mg/kg i.p.): 15.6 ± 4.1 min
Latency (min) REM sleep ([1]; 3 mg/kg i.p.): 66.0 ± 11.8 min
Latency (min) dSWS ([1]; 3 mg/kg i.p.): 42.0 ± 8.5 min
REMS/TST (%) ([1]; 3 mg/kg i.p.): 14.4 ± 1.0%
Shifts (number) Shift from ISWS to AW ([1]; 3 mg/kg i.p.): 217.8 number
Shifts (number) Shift from ISWS to PW ([1]; 3 mg/kg i.p.): 78.1 number
Shifts (number) Shift from REMS to AW ([1]; 3 mg/kg i.p.): 78.0 number
Shifts (number) Shift from REMS to PW ([1]; 3 mg/kg i.p.): 3.7 number
Shifts (number) Shift from dSWS to AW ([1]; 3 mg/kg i.p.): 9.7 number
Shifts (number) Shift from dSWS to PW ([1]; 3 mg/kg i.p.): 6.6 number
Total sleep time TST ([1]; 3 mg/kg i.p.): 586.6 ± 20.0 min
dSWS/TST (%) ([1]; 3 mg/kg i.p.): 20.8 ± 3.8%
change in total time spent in light sleep ([1]; 3 mg/kg, vs vehicle, 16 hours recording): +26%
increase in shifts from REM sleep towards active wakefulness ([1]; 10 mg/kg i.p., 16 hours recording): +16%
Duration (min) Active wake ([1]; 10 mg/kg i.p.): 305.5 min
Duration (min) Deep sleep ([1]; 10 mg/kg i.p.): 104.0 min
Duration (min) Light sleep ([1]; 10 mg/kg i.p.): 366.6 min
Duration (min) Passive wake ([1]; 10 mg/kg i.p.): 73.4 min
Duration (min) REM sleep ([1]; 10 mg/kg i.p.): 102.3 min
Duration (min) intermediate stage ([1]; 10 mg/kg i.p.): 5.2 min
ISWS/TST (%) ([1]; 10 mg/kg i.p.): 63.5 ± 2.7%
Latency (min) ISWS ([1]; 10 mg/kg i.p.): 30.4 ± 7.9 min
Latency (min) REM sleep ([1]; 10 mg/kg i.p.): 87.5 ± 14.5 min
Latency (min) dSWS ([1]; 10 mg/kg i.p.): 127.2 ± 67.1 min
REMS/TST (%) ([1]; 10 mg/kg i.p.): 17.8 ± 1.0%
Shifts (number) Shift from ISWS to AW ([1]; 10 mg/kg i.p.): 204.5 number
Shifts (number) Shift from ISWS to PW ([1]; 10 mg/kg i.p.): 84.4 number
Shifts (number) Shift from REMS to AW ([1]; 10 mg/kg i.p.): 94.1 number
Shifts (number) Shift from REMS to PW ([1]; 10 mg/kg i.p.): 8.9 number
Shifts (number) Shift from dSWS to AW ([1]; 10 mg/kg i.p.): 4.2 number
Shifts (number) Shift from dSWS to PW ([1]; 10 mg/kg i.p.): 12.5 number
Total sleep time TST ([1]; 10 mg/kg i.p.): 578.1 ± 22.6 min
dSWS/TST (%) ([1]; 10 mg/kg i.p.): 17.7 ± 3.1%
deep sleep duration [1, 5]: significant decrease
time spent in active wakefulness [1, 5]: increase
change in total time spent in light sleep ([1]; 10 mg/kg, vs vehicle, 16 hours recording): +24%
overall profile of effects compared with amphetamine at 1 mg/kg (effect pattern, size and duration) ([1]; 30 mg/kg): remarkably similar
rebound effect (increase in time spent in deep sleep), hours following administration ([1]; 30 mg/kg): 4 to 10 h
mean durations of the sleep wake states (active wakefulness, passive wakefulness, light sleep, REM sleep) ([1]; 30 mg/kg i.p.): not modified
change in number of REM sleep epochs [1, 6]: −24%
change in number of active wake epochs [1, 6]: +19%
change in number of light sleep epochs [1, 6]: −23%
change in number of passive wakefulness epochs [1, 6]: −30%
Duration (min) Active wake ([1]; 30 mg/kg i.p.): 371.6 min
Duration (min) Deep sleep ([1]; 30 mg/kg i.p.): 214.9 min
Duration (min) Light sleep ([1]; 30 mg/kg i.p.): 235.8 min
Duration (min) Passive wake ([1]; 30 mg/kg i.p.): 57.3 min
Duration (min) REM sleep ([1]; 30 mg/kg i.p.): 72.9 min
Duration (min) intermediate stage ([1]; 30 mg/kg i.p.): 4.0 min
ISWS/TST (%) ([1]; 30 mg/kg i.p.): 44.9 ± 2.9%
Latency (min) ISWS ([1]; 30 mg/kg i.p.): 73.6 ± 25.7 min
Latency (min) REM sleep ([1]; 30 mg/kg i.p.): 251.8 ± 32.0 min
Latency (min) dSWS ([1]; 30 mg/kg i.p.): 174.6 ± 12.3 min
REMS/TST (%) ([1]; 30 mg/kg i.p.): 13.7 ± 1.3 %
Shifts (number) Shift from ISWS to AW ([1]; 30 mg/kg i.p.): 221.9 number
Shifts (number) Shift from ISWS to PW ([1]; 30 mg/kg i.p.): 74.2 number
Shifts (number) Shift from REMS to AW ([1]; 30 mg/kg i.p.): 65.1 number
Shifts (number) Shift from REMS to PW ([1]; 30 mg/kg i.p.): 4.1 number
Shifts (number) Shift from dSWS to AW ([1]; 30 mg/kg i.p.): 8.7 number
Shifts (number) Shift from dSWS to PW ([1]; 30 mg/kg i.p.): 17.6 number
Total sleep time TST ([1]; 30 mg/kg i.p.): 527.0 ± 7.9 min
dSWS/TST (%) ([1]; 30 mg/kg i.p.): 39.2 ± 2.9 %
active wakefulness ([1]; 30 mg/kg i.p., first 3 hours following the administration): significant enhancement
change in total time spent in REM sleep [1, 7]: −25%
change in total time spent in active wakefulness [1, 7]: +19%
change in total time spent in light sleep [1, 7]: −20%
change in total time spent in passive wakefulness [1, 7]: −29%
active wakefulness at the expense of time spent in light sleep, deep sleep and REM sleep ([1]; 30 mg/kg, first 3 to 4 hours after the administration): strongly increased
changes in vigilance states ([1]; 3 and 10 mg/kg): Minor changes
duration of central activity ([1]; after intraperitoneal injection): at least 4 hours
peak in effect, time post administration ([1]; i.p.): around 2 hours
onset of activity ([1]; i.p., time following administration): ~30 min
Spontaneous Locomotor Activity [2]: stimulant or energizing effects
Spontaneous Locomotor Activity [3]: stimulant or energizing effects
